Measurements published in US5614510A, “Pharmaceutical composition with improved bioavailability of inositol phosphate” (priority 1992, dated 1997).
Counter-ions that a name gives are not always drawn. Blank lines part the entries; values can stand above or below the compound they belong to.

Tests used:
[1] = bioavailability of IP3 in pigs: blood concentration of IP3 and AUC after intravenous, intraduodenal or oral administration; format: in vivo
Method: The blood samples were assayed for the content of IP3 and these measurements were used for the calculation of the reference data as 100% of the substance is introduced into the blood stream after an intravenous injection.
Another five pigs were given the N(3-dodecanoyloxy)propyltrimethyl ammonium salt of IP3 as an intraduodenal dosing. The animals were treated with Atropin® and anaesthetized with Hypnodil®/Sedaperone® whereafter a laparotomy was carried out. Blood samples were collected at the time intervals mentioned above and the concentration of IP3 was determined in each sample. By calculating the area under the curve (AUC) from a graph where the concentration versus time is shown and comparing the obtained value with a similar calculation from the data after intravenous injection of the substance the bioavailability for the specific formulation is obtained.
Blood samples were collected at the same time intervals as above and the concentration of IP3 was determined. Following a similar procedure the AUC was determined.
(§1) Blood samples were collected and the concentration of IP3 were determined.
as §1

[2] = test system: intestinal barriers

- Normalized AUC ([1]; pig, in vivo): 75%
- bioavailability of the oral formulation ([1]; pig, in vivo): 75%
- conc. IP3 ([1]; pig, in vivo, 0 min): 0 nM
- concentration ([1]; pig, in vivo, 0.25 h): 18200 nM
- concentration ([1]; pig, in vivo, 0.5 h): 29600 nM
- concentration ([1]; pig, in vivo, 1 h): 20100 nM
- concentration ([1]; pig, in vivo, 2 h): 12200 nM
- concentration ([1]; pig, in vivo, 4 h): 4300 nM
- concentration ([1]; pig, in vivo, 6 h): 1500 nM
- concentration ([1]; pig, in vivo, 24 h): 100 nM
Compound: N-(hexyloxycarbonyl)methyl trimethyl ammonium inositol trisphosphate
- toxic effects on the intestinal barriers [2]: no toxic effects on the intestinal barriers

Compound: N(3-dodecanoyloxy)propyltrimethylammonium inositol trisphosphate
- conc. IP3 ([1]; pig blood, oral formulation given as intraduodenal dosing, 0 hrs): 0 nM
- Normalized AUC ([1]; pig, in vivo): 46%
- bioavailability of the oral formulation ([1]; pig, in vivo): 46%
- concentration ([1]; pig, in vivo, 0.25 h): 6300 nM
- concentration ([1]; pig, in vivo, 0.5 h): 9400 nM
- concentration ([1]; pig, in vivo, 1 h): 10800 nM
- concentration ([1]; pig, in vivo, 2 h): 7600 nM
- concentration ([1]; pig, in vivo, 4 h): 2200 nM
- concentration ([1]; pig, in vivo, 6 h): 1000 nM
- concentration ([1]; pig, in vivo, 8 h): 800 nM
- concentration ([1]; pig, in vivo, 24 h): 100 nM

- Normalized AUC ([1]; pig, in vivo): 3%
- Normalized AUC ([1]; pig, in vivo, iv): 100%
- concentration at 0.25 h ([1]; pig, in vivo, iv): 71000 nM
- concentration at 0.5 h ([1]; pig, in vivo, iv): 47500 nM
- concentration at 1 h ([1]; pig, in vivo, iv): 24900 nM
- concentration at 2 h ([1]; pig, in vivo, iv): 9300 nM
- concentration at 4 h ([1]; pig, in vivo, iv): 3200 nM
- concentration at 8 h ([1]; pig, in vivo, iv): 400 nM
- concentration at 24 h ([1]; pig, in vivo, iv): 200 nM
- conc. IP3 ([1]; pig, in vivo, iv, 0 min): 0 nM
- concentration ([1]; pig, in vivo, iv, 2 h): 9300 nM
- concentration at 0.25 h ([1]; pig, in vivo, po): 200 nM
- concentration at 0.5 h ([1]; pig, in vivo, po): 500 nM
- concentration at 1 h ([1]; pig, in vivo, po): 500 nM
- concentration at 2 h ([1]; pig, in vivo, po): 200 nM
- concentration at 4 h ([1]; pig, in vivo, po): 100 nM
- concentration at 6 h ([1]; pig, in vivo, po): 100 nM
- conc. IP3 ([1]; pig, in vivo, po, 0 min): 0 nM
- concentration ([1]; pig, in vivo, po, 1 h): 500 nM
- conc. IP3 ([1]; pig, in vivo, po, 480 min): 0 nM
- conc. IP3 ([1]; pig, in vivo, po, 1440 min): 0 nM
Compound: O=P(O)(O)O[C@@H]1[C@H](OP(=O)(O)O)[C@H](O)[C@@H](O)[C@H](O)[C@H]1OP(=O)(O)O [sodium salt, pentasodium salt of D-myo-inositol-1.2.6-triphosphate]
